Source: US7569711B2, “Enone cancer therapeutics” (Cornell Univeristy, priority 2002, dated 2009)
Where two headings read alike, the source gives them in different places.

How the values were obtained:
hGSTP1-1 = molecular target: T1, hGSTP1-1 (Homo sapiens, UniProt P09211); test: initial rates of reaction with hGSTP1-1 (substrate kinetics); assay type: biochemical; conditions: pH 6.5, [GSH]=1 mM, 25° C.; estimated
T1 construct: purchased Sigma Chemical Company; host or cells: human placenta
Experimental: Initial rates of reaction of 1a and 1b with hGSTP1-1 were determined from reciprocal plots of initial velocities (ΔOD235/min), versus [substrate] in buffered solution at pH 6.5, with [GSH]=1 mM (25° C.). Under those conditions, the enzyme-catalyzed GSH addition became rate determining (<0.01 units of transferase in the assay cuvettes).

[1] = test system: murine and human tumors in culture; conditions: range of different murine and human tumors in culture; read-out: IC50 antitumor activity; cited from earlier work
human erythrocyte GlxI [2] = molecular target: T2, human erythrocyte GlxI (Homo sapiens, UniProt Q04760); conditions: competitive; previously reported; read-out: dissociation constant Ki; cited from earlier work
T2 construct: Kinetic studies with human erythrocyte GlxI; from tissue; host or cells: human erythrocytes
T2 sequence (Q04760 2-184 limits assumed): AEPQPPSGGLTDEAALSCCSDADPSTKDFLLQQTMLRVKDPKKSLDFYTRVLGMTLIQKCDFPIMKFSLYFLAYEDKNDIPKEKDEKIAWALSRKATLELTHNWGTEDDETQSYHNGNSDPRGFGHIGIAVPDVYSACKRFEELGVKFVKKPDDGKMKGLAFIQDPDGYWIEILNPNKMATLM

human erythrocyte GlxI [3] = molecular target: T2, human erythrocyte GlxI; test: kinetic studies with human erythrocyte GlxI (competitive inhibition); assay type: biochemical; conditions: sodium phosphate buffer, pH 7.0, 25° C., read-out: dissociation constant Ki
Experimental: In each kinetic run, the concentration of free GSH was maintained at 0.2 mM by varying the total concentration of GSH and methylglyoxal on the basis of the dissociation constant of the hemithioacetal (Kdiss=2.2 mM). Conditions: 50 mM phosphate buffer, pH 7.0, 25° C.
To investigate the mechanism of formation of 2b, the nonenzymatic reaction of 1b with GSH was monitored spectrophotometrically, and followed a simple first-order decay (FIG. 2, trace A). No intermediate species was detectable. However, in the presence of human placental glutathione transferase (GSTP 1-1) (Predominantly the pi or P1-1 isoform, purchased from Sigma Chemical Company. Salts and free GSH were removed by ultrafiltration. Units of transferase activity were determined using 1-chloro-2,4-dinitrobenzene as substrate (Mannervik, B.; Danielson, U. H. CRC Critical Reviews in Biochemistry 1988, 23, 283-337). The reaction rate profile conformed to a double exponential decay, composed of a rapid, enzyme-dependent, initial phase involving 1b followed by a slower enzyme-independent first-order phase (FIG. 2, traces B and C).

T1 sequence (P09211 2-210 limits assumed): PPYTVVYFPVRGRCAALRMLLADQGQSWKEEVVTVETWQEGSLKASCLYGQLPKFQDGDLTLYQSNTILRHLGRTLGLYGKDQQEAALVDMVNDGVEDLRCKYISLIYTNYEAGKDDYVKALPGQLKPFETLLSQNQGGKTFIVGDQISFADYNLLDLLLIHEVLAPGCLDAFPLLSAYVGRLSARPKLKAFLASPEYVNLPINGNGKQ

C/C=C/C(=O)OCC1=C[C@@H](O)[C@@H](O)[C@@H](O)C1=O [Compound 1a, 2-crotonyloxymethyl-(4R, 5R, 6R)-4,5,6-trihydroxy-2-cyclohexenone]
kcat/Km, fold lower than that of 1b (hGSTP1-1): ~8.3 fold | IC50 [1]: 3 to 44 µM

NC(CCC(=O)NC(CSCC1=CC(O)C(O)C(O)C1=O)C(=O)NCC(=O)O)C(=O)O (stereo not shown) [Compound 2a]
Ki (human erythrocyte GlxI [2]): 183 ± 6 µM

N[C@@H](CCC(=O)N[C@@H](CSCC1=CCCCC1=O)C(=O)NCC(=O)O)C(=O)O [Compound 2b]
Ki (human erythrocyte GlxI [3]): 107 ± 0.1 µM
